For 1 compound, CLhep predicted and Papp A→B results are on record in ChEMBL document CHEMBL5357083 (ACS Med Chem Lett, 2024).

A short description of series [1]: in vitro. As to conditions: mouse, liver microsomes. In general terms: Liver microsomes are vesicles of endoplasmic reticulum, rich in cytochrome P450 enzymes.
A short description of series [2]: in vitro. To be noted: dog, MDCK-MDR1.

`Brc1ccc2[nH]nc(C3=CCCNC3)c2c1`: the CLhep predicted at […], 1 µM in the series “in vitro [1]” is 57 mL/min/kg. Moreover, the apical-to-basolateral permeability (Papp A→B) at 5 µM in “in vitro [2]” was determined as 7.9 ×10⁻⁶ cm/s.

A word on the Papp A→B: it is how fast a substance crosses the layer from the apical side.
